# According to paper PMC11640836, “Aminomethylmorpholino Nucleosides as Novel Inhibitors of PARP1 and PARP2: Experimental and Molecular Modeling Analyses of Their Selectivity and Mechanism of Action” (International Journal of Molecular Sciences, 2024):
# Where two headings read alike, the source gives them in different places.
# Key:
# [1] = molecular target: T1, PARP1 (Homo sapiens, UniProt P09874); assay: Steady-state kinetic analysis of the PARP1 enzymatic reaction; format: biochemical; details: for Type of inhibition: Vmax decreased, KM increased
# T1 construct: made in house; host or cells: insect cells
# T1 sequence (P09874 whole entry): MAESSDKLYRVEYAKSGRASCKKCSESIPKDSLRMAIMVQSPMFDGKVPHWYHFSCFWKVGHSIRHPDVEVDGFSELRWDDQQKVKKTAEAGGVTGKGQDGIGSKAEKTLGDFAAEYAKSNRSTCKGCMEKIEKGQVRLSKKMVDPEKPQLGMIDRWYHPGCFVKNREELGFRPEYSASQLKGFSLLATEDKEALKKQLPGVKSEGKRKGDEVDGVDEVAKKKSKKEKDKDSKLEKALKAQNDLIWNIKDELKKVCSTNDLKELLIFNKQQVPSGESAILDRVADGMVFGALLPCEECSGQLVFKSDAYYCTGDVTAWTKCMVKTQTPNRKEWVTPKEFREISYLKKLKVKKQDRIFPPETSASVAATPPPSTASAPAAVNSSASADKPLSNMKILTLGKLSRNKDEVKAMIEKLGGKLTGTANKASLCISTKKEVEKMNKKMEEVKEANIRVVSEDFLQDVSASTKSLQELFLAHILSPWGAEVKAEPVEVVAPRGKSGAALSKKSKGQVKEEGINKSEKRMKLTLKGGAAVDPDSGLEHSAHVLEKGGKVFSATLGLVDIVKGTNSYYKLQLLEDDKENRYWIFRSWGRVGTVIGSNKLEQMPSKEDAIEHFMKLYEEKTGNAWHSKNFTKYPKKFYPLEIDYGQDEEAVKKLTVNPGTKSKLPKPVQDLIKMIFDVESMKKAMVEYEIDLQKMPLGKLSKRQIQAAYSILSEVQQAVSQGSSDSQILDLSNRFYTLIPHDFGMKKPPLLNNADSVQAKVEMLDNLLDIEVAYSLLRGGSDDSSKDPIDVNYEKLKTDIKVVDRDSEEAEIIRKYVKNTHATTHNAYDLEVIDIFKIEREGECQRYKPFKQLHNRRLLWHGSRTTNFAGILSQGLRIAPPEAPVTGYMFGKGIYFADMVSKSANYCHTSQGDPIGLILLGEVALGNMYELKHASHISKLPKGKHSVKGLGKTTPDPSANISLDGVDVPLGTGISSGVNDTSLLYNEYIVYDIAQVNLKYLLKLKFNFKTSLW
# Procedure: The four efficient inhibitors of PARP1 (compounds 8, 12, 13, and 14) were further examined by detailed kinetic experiments to determine the type of inhibition and the inhibition constants. […] The kinetics experiments of the PARylation reaction were performed at varied concentrations of the NAD^+ substrate and three–four different fixed concentrations of the inhibitor. The kinetic parameters of the reaction (Vmax and KM) were calculated by fitting the Michaelis–Menten equation to the kinetic data. The type of inhibition was determined by analyzing the dependences of Vmax and KM on the concentration of the inhibitor in linearizing coordinates (Figure S3). All the compounds had decreased Vmax and increased KM values as the inhibitor concentration increased (panels A−E), indicating a mixed type of inhibition, which was further evidenced by the double reciprocal plots of kinetic data (panel F). From these experiments, the inhibition constants reflecting the affinity of inhibitors to the NAD^+ binding pocket of free enzymes were determined (Table 2).
# To determine the apparent maximum rate of enzymatic reaction (Vmax), Michaelis constant (KM), and possible inhibition mechanism, steady-state kinetic experiments were performed at […] fixed concentrations of the substrate, in the absence and presence of different fixed concentrations of the inhibitor. The standard reaction mixtures (10 μL) contained 100 μM, 300 μM, 500 μM, 1 mM, or 2 mM NAD^+; a tested PARP1/PARP2 inhibitor specified for each compound (Figure S3); the recombinant human enzyme PARP1 (200 nM) or murine PARP2 (800 nM); and reaction buffer components (specified in the previous subsection). The reaction was performed as described in the previous subsection. The raw data (kinetic curves) were obtained in three independent experiments and statistically processed with OriginPro 8.6.0 software. […]
# F) Graphical representation in double reciprocal plots. The inhibitor concentrations (µM) are indicated right to each panel.
# Figure S3. Graphical representation of inhibition type determination for PARP1 and PARP2 with selected compounds.
# The Ki and Ki(2) values presented in Table 2 in the main text and Table S1 were calculated using the equations:
# Ki = Ci⁄ Ki (2) = CiV Vmax ∗ൗ−1
# ቂ(Vmax Km )൘ቃ(Vmax ∗ Km ∗)⁄ −1 where Vmax (Vmax*) – maximal reaction velocity in th e absence (presence) of inhibitor; Km (Km*) – Michaelis constant in the absence (presence) of inhibitor; Ci – the inhibitor concentration.
# (also on this page, place not known: Ci )⁄ (Vmax ∗ )⁄൘ቃ − Ki(2) Ci V ∗ൗ− 1 the Vmax KM 3000 0 1 0 250 [ 32 P]ADP-ribose, counts x 10 -3 NAD + ,)
# (1 picture or pasted object on this page, not shown here)
# [2] = system: HeLa cell line (cervical cancer); assay: Cell culture cytotoxicity assay (EZ4U/MTT), compounds alone and combined with hydrogen peroxide; details: for Effect (H2O2 + PARP inhibitor combo) / Combination index (CI): Hela; for Combination index (CI): CompuSyn; for Combination index (CI) with H2O2, as stated in text: different concentrations of H2O2 and inhibitor, Hela cells
# [3] = molecular target: T1, PARP1; assay: PARP1 autopoly(ADP-ribosyl)ation (autoPARylation) enzyme assay with [32P]NAD+; format: biochemical
# Procedure: (§1) Human recombinant poly(ADP-ribose) polymerase 1 (PARP1) and murine poly(ADP-ribose) polymerase 2 (PARP2) were expressed in insect cells and purified as previously described. Radioactively labeled [^32P]NAD^+ was synthesized from [α-^32P]ATP, according to the previously developed method. The reaction of autopoly(ADP-ribosyl)ation was performed as follows. For PARP1, the reaction mixture contained 50 mM of Tris-HCl, a pH of 8.0, 10 mM of MgCl2, 150 mM of NaCl, 7 mM of β-mercaptoethanol, 2 A260/mL of activated DNA, 0.3 mM of [^32P]NAD^+, and 1 of the tested compounds. The reaction was initiated by adding PARP1 up to 200 nM, and the reaction mixtures were incubated at 37 °C for 2 min. For PARP2, the reaction mixture contained 50 mM of Tris-HCl, a pH of 8.0, 3 mM of spermine, 150 mM of NaCl, 7 mM of β-mercaptoethanol, 2 A260/mL of activated DNA, 0.6 mM of [^32P]NAD^+, and 1 of the tested compounds. The reaction was initiated by adding PARP2 up to 800 nM, and the reaction mixtures were incubated at 37 °C for 5 min. The tested compounds were added at six fixed concentrations, specified for each of them. The reaction was stopped by dropping 10 µL aliquots onto Whatman 1 filter papers soaked in 5% trichloroacetic acid (TCA). The filters were washed 4 times with 150 mL of 5% TCA and dried in the air after the removal of TCA with 90% ethanol. The introduction of radioactivity into the reaction product was quantified using a Typhoon FLA 9500 imager (GE Healthcare, Chicago, IL, USA). The half-maximal inhibitory concentration (IC50) values were determined using a six-point concentration response curve in three independent experiments.
# [4] = molecular target: T2, PARP2 (Mus musculus, UniProt O88554); assay: PARP2 autopoly(ADP-ribosyl)ation (autoPARylation) enzyme assay with [32P]NAD+; format: biochemical, murine
# T2 construct: made in house; host or cells: insect cells
# T2 sequence (O88554 whole entry): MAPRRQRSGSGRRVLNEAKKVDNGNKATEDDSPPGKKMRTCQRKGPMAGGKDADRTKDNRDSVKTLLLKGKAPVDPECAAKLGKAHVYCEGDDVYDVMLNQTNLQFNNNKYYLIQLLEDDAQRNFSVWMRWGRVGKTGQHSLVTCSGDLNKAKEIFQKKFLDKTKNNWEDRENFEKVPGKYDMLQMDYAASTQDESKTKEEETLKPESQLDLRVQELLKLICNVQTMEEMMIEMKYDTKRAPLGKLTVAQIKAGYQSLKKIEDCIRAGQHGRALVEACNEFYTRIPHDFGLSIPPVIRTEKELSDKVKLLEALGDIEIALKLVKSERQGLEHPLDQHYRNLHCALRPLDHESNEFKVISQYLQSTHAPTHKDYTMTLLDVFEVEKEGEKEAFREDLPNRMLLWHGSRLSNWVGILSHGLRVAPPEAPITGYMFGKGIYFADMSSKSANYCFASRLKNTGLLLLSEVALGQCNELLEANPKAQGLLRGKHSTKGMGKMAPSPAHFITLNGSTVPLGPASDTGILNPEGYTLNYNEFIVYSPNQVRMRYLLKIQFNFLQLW
# Procedure: as §1
# [5] = mixed-type inhibition, read-out: Ki (affinity for the free enzyme)
# [6] = read-out: Ki(2) (affinity for the enzyme complex with NAD+ substrate)
# [7] = H2O2 150 μM + inhibitor 1000 μM
# [8] = H2O2 250 μM + inhibitor 1000 μM
smiles,measurement,setting,value
Cc1cn([C@H]2CNC[C@@H](CN)O2)c(=O)[nH]c1=O [Compound 8],Type of inhibition,[1],mixed-type inhibition
same,Ki,[1]; [5],12 ± 2 µM
same,Ki,[1]; [6],40 ± 8 µM
same,Effect (H2O2 + PARP inhibitor combo),[2]; H2O2 30 μM + inhibitor 100 μM,0.15
same,Combination index (CI),[2]; H2O2 30 μM + inhibitor 100 μM,2.596
same,Effect (H2O2 + PARP inhibitor combo),[2]; H2O2 30 μM + inhibitor 1000 μM,0.46
same,Combination index (CI),[2]; H2O2 30 μM + inhibitor 1000 μM,0.6254
same,Effect (H2O2 + PARP inhibitor combo),[2]; H2O2 50 μM + inhibitor 100 μM,0.21
same,Combination index (CI),[2]; H2O2 50 μM + inhibitor 100 μM,1.707
same,Effect (H2O2 + PARP inhibitor combo),[2]; H2O2 50 μM + inhibitor 1000 μM,0.59
same,Combination index (CI),[2]; H2O2 50 μM + inhibitor 1000 μM,0.2634
same,Effect (H2O2 + PARP inhibitor combo),[2]; H2O2 90 μM + inhibitor 100 μM,0.48
same,Combination index (CI),[2]; H2O2 90 μM + inhibitor 100 μM,0.375
same,Effect (H2O2 + PARP inhibitor combo),[2]; H2O2 90 μM + inhibitor 1000 μM,0.68
same,Combination index (CI),[2]; H2O2 90 μM + inhibitor 1000 μM,0.1724
same,Effect (H2O2 + PARP inhibitor combo),[2]; H2O2 150 μM + inhibitor 100 μM,0.61
same,Combination index (CI),[2]; H2O2 150 μM + inhibitor 100 μM,0.2716
same,Effect (H2O2 + PARP inhibitor combo),[2]; [7],0.79
same,Combination index (CI),[2]; [7],0.09406
same,Effect (H2O2 + PARP inhibitor combo),[2]; H2O2 250 μM + inhibitor 100 μM,0.94
same,Combination index (CI),[2]; H2O2 250 μM + inhibitor 100 μM,0.01519
same,Effect (H2O2 + PARP inhibitor combo),[2]; [8],0.92
same,Combination index (CI),[2]; [8],0.02575
same,"Combination index (CI) with H2O2, as stated in text",[2],less than one
same,IC50,[3],10 ± 3 µM
same,IC50,[4],133 ± 8 µM
NC[C@@H]1CNC[C@H](n2cc(I)c(=O)[nH]c2=O)O1 [Compound 14],Type of inhibition,[1],mixed-type inhibition
same,Ki,[1]; [5],15 ± 3 µM
same,Ki,[1]; [6],50 ± 10 µM
same,Effect (H2O2 + PARP inhibitor combo),[2]; H2O2 30 μM + inhibitor 100 μM,0.46
same,Combination index (CI),[2]; H2O2 30 μM + inhibitor 100 μM,0.6331
same,Effect (H2O2 + PARP inhibitor combo),[2]; H2O2 30 μM + inhibitor 1000 μM,0.3
same,Combination index (CI),[2]; H2O2 30 μM + inhibitor 1000 μM,0.3003
same,Effect (H2O2 + PARP inhibitor combo),[2]; H2O2 50 μM + inhibitor 100 μM,0.47
same,Combination index (CI),[2]; H2O2 50 μM + inhibitor 100 μM,0.5789
same,Effect (H2O2 + PARP inhibitor combo),[2]; H2O2 50 μM + inhibitor 1000 μM,0.32
same,Combination index (CI),[2]; H2O2 50 μM + inhibitor 1000 μM,0.2452
same,Effect (H2O2 + PARP inhibitor combo),[2]; H2O2 90 μM + inhibitor 100 μM,0.6
same,Combination index (CI),[2]; H2O2 90 μM + inhibitor 100 μM,0.1778
same,Effect (H2O2 + PARP inhibitor combo),[2]; H2O2 90 μM + inhibitor 1000 μM,0.5
same,Combination index (CI),[2]; H2O2 90 μM + inhibitor 1000 μM,0.04618
same,Effect (H2O2 + PARP inhibitor combo),[2]; H2O2 150 μM + inhibitor 100 μM,0.68
same,Combination index (CI),[2]; H2O2 150 μM + inhibitor 100 μM,0.08158
same,Effect (H2O2 + PARP inhibitor combo),[2]; [7],0.61
same,Combination index (CI),[2]; [7],0.01767
same,Effect (H2O2 + PARP inhibitor combo),[2]; H2O2 250 μM + inhibitor 100 μM,0.82
same,Combination index (CI),[2]; H2O2 250 μM + inhibitor 100 μM,0.01487
same,Effect (H2O2 + PARP inhibitor combo),[2]; [8],0.84
same,Combination index (CI),[2]; [8],0.00135
same,"Combination index (CI) with H2O2, as stated in text",[2],less than one
same,IC50,"[3]; 0.3 mM [32P]NAD+, means ±SDs of three independent experiments, read-out: IC50, PARP1 activity in the autoPARylation reaction",12 ± 2 µM
same,IC50,"[4]; 0.6 mM [32P]NAD+, means ±SDs of three independent experiments, read-out: IC50, PARP2 activity in the autoPARylation reaction",63 ± 9 µM
